Laboratory results from patent US20120225862A1, “HETEROARYL BENZAMIDES, COMPOSITIONS AND METHODS OF USE” (AUCKLAND UNIVSERVICES LIMITED, priority 2009, published 2012).
pIC50: −log10 of the molar value.

Assays:
ACHN shVHL = assay: Xenograft tumor growth, ACHN expressing shRNA to VHL; type: in vivo, mice; details: daily systemic treatment ten to fourteen days, vs vehicle
Method: (§1) Five million cells were injected into the flanks of nu/nu mice (4-6 weeks old males) and allowed to grow to approximately 50 mm^3. The mice were injected daily by intra-peritoneal to deliver either vehicle or drug. Tumors were measured every other day and tumor volume was calculated as 0.5 length by width squared.
(§2) In Vivo Studies and Immunohistochemistry. All experiments were approved by Stanford's Administrative Panel on Laboratory Animal Care (APLAC) and in accordance with both institutional and national guidelines. Five million cells were implanted subcutaneously into the flanks of nude mice (4-6 weeks old)(Charles River Laboratories). Tumors were measured with calipers. Volume was calculated by the following formula: width^2×0.5 length. Once tumors reached an average size of >20 mm^3, mice were randomized into vehicle (DMSO diluted in 16% cremaphor EL/PBS) or treated groups. Mice were treated with compound 85 (11.6 mg/kg for the first 3 days, followed by 7.8 mg/kg for the 7-9 days). Five-micron sections were cut for immunohistochemistry. Sections were counterstained with hematoxylin and eosin. For 2-[^18F]-fluoro-2-deoxy-glucose-positron emission tomography imaging, mice bearing tumors were fasted overnight. The next day, the mice were anesthetized with 2% isoflurane and injected intraperitoneally with 250 μCi of FDG. […]

[1] = Solubility (comparison in words); type: physicochemical
[2] = Normal tissue toxicity (histology); type: in vivo; details: treated mice; kidney, spleen, liver, heart, salivary gland, brain
Method: FIG. 5A-E In vivo monitoring and efficacy of compound 47. […] 786-O, a renal clear cell carcinoma with a naturally occurring VHL mutation, were implanted subcutaneously into the flanks of CD-1 nude mice. Representative axial cross section of a mouse prior to treatment (left) and following three daily i.p. injections with compound 85 (11.6 mg/kg)(right), overlaid over CT scan. (B) Quantitatively, compound 85 inhibits FDG-PET in mouse xenografts. Quantification of FDG-PET inhibition by compound 85 as determined by the 90th percentile ROI for percent injected dose per gram (% ID/g) (*p<0.01). (C) Compound 85 is not toxic to normal tissues. (a, b) Kidney of vehicle- and compound 85-treated animals. (c, d) Spleen of vehicle- and compound 85-treated animals. (e, f) Liver of vehicle- and compound 85-treated animals. (g, h) Heart of vehicle- and compound 85-treated animals. (i, j) Salivary gland of vehicle- and compound 85-treated animals. (k, l) Brain of vehicle- and compound 85-treated animals. Scale bar represents 100 microns. (D) Compound 85 delays tumor growth. 786-O tumor-bearing mice were treated daily with vehicle or compound 85 (11.6 mg/kg for the first 3 days, followed by 7.8 mg/kg for the next week)(*p<0.005). […]
In Vivo Studies and Immunohistochemistry. […] Tumors were measured with calipers. Volume was calculated by the following formula: width^2×0.5 length. […]

ACHN = assay: Xenograft tumor growth, ACHN with wild-type VHL; type: in vivo, mice; details: daily treatment vs vehicle control
Method: as §1, §2

RCC4 = assay: XTT IC50 / viability assay, RCC4 cells; type: cell-based, human; details: Homo sapiens, RCC4, 96 h; XTT assay, four days
Procedure, shortened: (§3)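 RCC4 parental and VHL-reintroduced RCC4/VHL cells (DMEM, 10% FCS) treated with serially diluted drug for four days. Viability by XTT (0.3 mg/mL) with N-methyl dibenzopyrazine methyl sulfate, 1–2 h at 37 °C, absorbance 450 nm; IC50 by linear interpolation.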

786-O [3] = assay: FDG-PET imaging of 786-O xenografts; type: in vivo, mice
Method: FIG. 5A-E In vivo monitoring and efficacy of compound 47. […] 786-O, a renal clear cell carcinoma with a naturally occurring VHL mutation, were implanted subcutaneously into the flanks of CD-1 nude mice. Representative axial cross section of a mouse prior to treatment (left) and following three daily i.p. injections with compound 85 (11.6 mg/kg)(right), overlaid over CT scan. (B) Quantitatively, compound 85 inhibits FDG-PET in mouse xenografts. Quantification of FDG-PET inhibition by compound 85 as determined by the 90th percentile ROI for percent injected dose per gram (% ID/g) (*p<0.01). (C) Compound 85 is not toxic to normal tissues. (a, b) Kidney of vehicle- and compound 85-treated animals. (c, d) Spleen of vehicle- and compound 85-treated animals. (e, f) Liver of vehicle- and compound 85-treated animals. (g, h) Heart of vehicle- and compound 85-treated animals. (i, j) Salivary gland of vehicle- and compound 85-treated animals. (k, l) Brain of vehicle- and compound 85-treated animals. Scale bar represents 100 microns. (D) Compound 85 delays tumor growth. 786-O tumor-bearing mice were treated daily with vehicle or compound 85 (11.6 mg/kg for the first 3 days, followed by 7.8 mg/kg for the next week)(*p<0.005). (E) Compound 85 delays tumor growth in cells that have lost VHL. ACHN cells expressing a short hairpin RNA to VHL were implanted subcutaneously into the flanks of immunocompromised mice. Once tumors reached an average of >20 mm^3, mice were treated daily with compound 85 or vehicle (*p<0.05). All error bars represent the standard error of the mean.
In Vivo Studies and Immunohistochemistry. All experiments were approved by Stanford's Administrative Panel on Laboratory Animal Care (APLAC) and in accordance with both institutional and national guidelines. Five million cells were implanted subcutaneously into the flanks of nude mice (4-6 weeks old)(Charles River Laboratories). Tumors were measured with calipers. Volume was calculated by the following formula: width^2×0.5 length. […]

RCC4/VHL = assay: XTT IC50 assay, selectivity RCC4 versus RCC4 with VHL-reintroduced; type: cell-based, human; details: selectivity ratio of XTT IC50 values, RCC4 vs RCC4/VHL
Procedure, shortened: as §3

786-O [4] = assay: Xenograft tumor growth, 786-O; type: in vivo, mice; details: daily, 11.6 mg/kg for 3 days then 7.8 mg/kg, ten to fourteen days, vs vehicle
Method: as §1, §2

Compound: CN1CCN(c2ccc(S(=O)(=O)NCc3ccc(C(=O)Nc4cccnc4)cc3)cc2)CC1 [Example 76, 4-((4-(4-Methylpiperazin-1-yl)phenylsulfonamido)methyl)-N-(pyridin-3-yl)benzamide]
- tumor growth, ACHN shVHL xenografts (ACHN shVHL): markedly delayed tumor growth
- solubility relative to compound 47 [1]: more soluble
- normal tissue toxicity [2]: no normal tissue toxicity
- tumor growth, ACHN wild-type VHL xenografts (ACHN): grew at similar rates
- pIC50 (RCC4): > 6.00
- glucose uptake within tumors by FDG-PET (786-O [3]; 786-O xenografts in CD-1 nude mice, three daily i.p. doses (11.6 mg/kg)): striking decrease in glucose uptake within the tumors
- tumor FDG uptake, quantified (% ID/g) (786-O [3]; 786-O xenografts, FIG. 5B): consistently decreased FDG uptake
- Ratio (RCC4:RCC/VHL) (RCC4/VHL): c (“c” reflects a ratio of >100)
- tumor growth, 786-O xenografts (786-O [4]): markedly delayed tumor growth
